Source: patent US20260116920A1, “HUMAN TRANSFERRIN RECEPTOR BINDING PEPTIDE” (PEPTIDREAM INC., priority 2021, published 2026)
Positions of bridges follow the written chain, without caps; N, C: chain ends. Non-standard residues stand in square brackets, D forms with d. Residues, ends and D or L forms follow the SMILES beside them. Trp(1-CH2COOH) = N[C@@H](Cc1cn(CC(=O)O)c2ccccc12)C(=O)O; NMePhe(3-Cl) = CN[C@@H](Cc1cccc(Cl)c1)C(=O)O; NMeY = CN[C@@H](Cc1ccc(O)cc1)C(=O)O; 3Pal = N[C@@H](Cc1cccnc1)C(=O)O; 4Pal = N[C@@H](Cc1ccncc1)C(=O)O; PEG4 = NCCOCCOCCOCCOCCC(=O)O

Target: T1, human transferrin receptor (hTfR) (Homo sapiens, UniProt P02786)
T1 construct: made in house
T1 sequence (P02786 89-760 limits assumed): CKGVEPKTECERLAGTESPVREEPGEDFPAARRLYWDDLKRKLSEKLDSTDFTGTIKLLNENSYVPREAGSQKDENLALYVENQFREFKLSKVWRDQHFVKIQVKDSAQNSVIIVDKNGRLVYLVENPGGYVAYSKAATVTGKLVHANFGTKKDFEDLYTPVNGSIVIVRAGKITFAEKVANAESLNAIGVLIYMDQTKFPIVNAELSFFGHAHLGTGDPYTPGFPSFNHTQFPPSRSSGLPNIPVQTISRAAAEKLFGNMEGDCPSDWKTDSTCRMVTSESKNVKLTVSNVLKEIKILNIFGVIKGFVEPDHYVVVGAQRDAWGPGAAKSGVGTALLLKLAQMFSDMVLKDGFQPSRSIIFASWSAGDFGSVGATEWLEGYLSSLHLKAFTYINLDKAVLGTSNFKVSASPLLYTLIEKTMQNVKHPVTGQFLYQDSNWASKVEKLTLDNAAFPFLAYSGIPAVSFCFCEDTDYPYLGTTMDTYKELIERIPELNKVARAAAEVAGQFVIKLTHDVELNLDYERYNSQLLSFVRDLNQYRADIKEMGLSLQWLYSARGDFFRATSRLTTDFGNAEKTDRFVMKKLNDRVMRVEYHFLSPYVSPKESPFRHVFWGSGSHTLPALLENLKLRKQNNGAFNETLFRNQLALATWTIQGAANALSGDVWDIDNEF
Assay: Evaluation of molecular interaction between transferrin receptor (hTfR) and peptide using surface plasmon resonance (SPR)
Assay type: binding
Details: surface plasmon resonance, binding to hTfR; KD class symbol; read-out: SPR (KD value)
In short: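 Recombinant hTfR dimer (0.5 μM) immobilized on Ni-loaded NTA chip via EDC/NHS, ethanolamine-capped. Peptides at 5–100 nM in HEPES pH 8.0 buffer with 150 mM NaCl, 0.05% Tween 20, 0.1% BSA, 1.0% DMSO, flowed by single-cycle kinetics; KD from least-squares fit of sensorgrams.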

SMILES	Kd [nM]
CC[C@H](C)[C@@H]1NC(=O)[C@H](Cc2ccc(OC)cc2)NC(=O)[C@H](Cc2ccc(O)cc2)NC(=O)[C@H](CC(N)=O)NC(=O)[C@H](Cc2cn(CC(=O)O)c3ccccc23)NC(=O)[C@H](C(C)C)NC(=O)[C@H](Cc2cccc(Cl)c2)N(C)C(=O)[C@H](C(C)C)NC(=O)[C@H](C)NC(=O)CSC[C@@H](C(=O)NCC(=O)N[C@H](CCC(=O)O)C(=O)N[C@H](CCC(=O)O)C(=O)N[C@H](CCC(=O)O)C(=O)N[C@H](CO)C(=O)N[C@H](CO)C(=O)N[C@@H](CCCCN=[N+]=[N-])C(N)=O)NC(=O)[C@H](Cc2ccc(O)cc2)N(C)C(=O)[C@H](Cc2ccccc2)NC(=O)[C@H](CCCNC(=N)N)NC(=O)[C@H](CCCNC(=N)N)NC(=O)[C@H](CCC(=O)O)NC1=O [compound 39]	< 1
CC[C@H](C)[C@@H]1NC(=O)[C@H](Cc2ccc(OCC(=O)O)cc2)NC(=O)[C@H](Cc2ccc(O)cc2)NC(=O)[C@H](CC(N)=O)NC(=O)[C@H](Cc2cn(CC(=O)O)c3ccccc23)NC(=O)[C@H](C(C)C)NC(=O)[C@H](Cc2cccc(Cl)c2)N(C)C(=O)[C@H](C(C)C)NC(=O)[C@H](C)NC(=O)CSC[C@@H](C(=O)NCC(=O)N[C@H](CCC(=O)O)C(=O)N[C@H](CCC(=O)O)C(=O)N[C@H](CCC(=O)O)C(=O)N[C@H](CO)C(=O)N[C@H](CO)C(=O)N[C@@H](CCCCN=[N+]=[N-])C(N)=O)NC(=O)[C@H](Cc2ccc(O)cc2)N(C)C(=O)[C@H](Cc2ccccc2)NC(=O)[C@H](CCCNC(=N)N)NC(=O)[C@H](CCCNC(=N)N)NC(=O)[C@H]([C@@H](C)CC)NC1=O [compound 40]	< 1
CC[C@H](C)[C@@H]1NC(=O)[C@H](Cc2ccc(OCC(=O)O)cc2)NC(=O)[C@H](Cc2ccc(O)cc2)NC(=O)[C@H](CC(N)=O)NC(=O)[C@H](Cc2c[nH]c3ccccc23)NC(=O)[C@H](C(C)C)NC(=O)[C@H](Cc2ccccc2)N(C)C(=O)[C@H](C(C)C)NC(=O)[C@H](C)NC(=O)CSC[C@@H](C(=O)NCC(=O)N[C@H](CCC(=O)O)C(=O)N[C@H](CCC(=O)O)C(=O)N[C@H](CCC(=O)O)C(=O)N[C@H](CO)C(=O)N[C@H](CO)C(=O)N[C@@H](CCCCN=[N+]=[N-])C(N)=O)NC(=O)[C@H](Cc2ccc(O)cc2)N(C)C(=O)[C@H](Cc2ccc(O)cc2)NC(=O)[C@H](CCCNC(=N)N)NC(=O)[C@H](CCCNC(=N)N)NC(=O)[C@H]([C@@H](C)CC)NC1=O [compound 41]	1 to 100
CC[C@H](C)[C@@H]1NC(=O)[C@H](Cc2ccc(OCC(=O)O)cc2)NC(=O)[C@H](Cc2ccc(O)cc2)NC(=O)[C@H](CC(N)=O)NC(=O)[C@H](Cc2cn(CC(=O)O)c3ccccc23)NC(=O)[C@H](C(C)C)NC(=O)[C@H](Cc2ccccc2)N(C)C(=O)[C@H](C(C)C)NC(=O)[C@H](C)NC(=O)CSC[C@@H](C(=O)NCC(=O)N[C@H](CCC(=O)O)C(=O)N[C@H](CCC(=O)O)C(=O)N[C@H](CCC(=O)O)C(=O)N[C@H](CO)C(=O)N[C@H](CO)C(=O)N[C@@H](CCCCN=[N+]=[N-])C(N)=O)NC(=O)[C@H](Cc2ccc(O)cc2)N(C)C(=O)[C@H](Cc2ccc(O)cc2)NC(=O)[C@H](CCCNC(=N)N)NC(=O)[C@H](CCCNC(=N)N)NC(=O)[C@H]([C@@H](C)CC)NC1=O [compound 42]	1 to 100
CC[C@H](C)[C@@H]1NC(=O)[C@H](Cc2ccc(OC)cc2)NC(=O)[C@H](Cc2ccc(O)cc2)NC(=O)[C@H](CC(N)=O)NC(=O)[C@H](Cc2cn(CC(=O)O)c3ccccc23)NC(=O)[C@H](C(C)C)NC(=O)[C@H](Cc2cccc(Cl)c2)N(C)C(=O)[C@H](C(C)C)NC(=O)[C@H](C)NC(=O)CSC[C@@H](C(=O)NCCOCCOCCOCCOCCC(N)=O)NC(=O)[C@H](Cc2ccc(O)cc2)N(C)C(=O)[C@H](Cc2ccccc2)NC(=O)[C@H](CCCNC(=N)N)NC(=O)[C@H](CCCNC(=N)N)NC(=O)[C@H](CCC(=O)O)NC1=O [compound 43]	1 to 100
CC[C@H](C)[C@@H]1NC(=O)[C@H](Cc2ccc(OCC(=O)O)cc2)NC(=O)[C@H](Cc2ccc(O)cc2)NC(=O)[C@H](CC(N)=O)NC(=O)[C@H](Cc2cn(CC(=O)O)c3ccccc23)NC(=O)[C@H](C(C)C)NC(=O)[C@H](Cc2cccc(Cl)c2)N(C)C(=O)[C@H](C(C)C)NC(=O)[C@H](C)NC(=O)CSC[C@@H](C(=O)NCCOCCOCCOCCOCCC(N)=O)NC(=O)[C@H](Cc2ccc(O)cc2)N(C)C(=O)[C@H](Cc2ccccc2)NC(=O)[C@H](CCCNC(=N)N)NC(=O)[C@H](CCCNC(=N)N)NC(=O)[C@H]([C@@H](C)CC)NC1=O [compound 44]	1 to 100
CC[C@H](C)[C@@H]1NC(=O)[C@H](Cc2ccc(OCC(=O)O)cc2)NC(=O)[C@H](Cc2ccc(O)cc2)NC(=O)[C@H](CC(N)=O)NC(=O)[C@H](Cc2cn(CC(=O)O)c3ccccc23)NC(=O)[C@H](C(C)C)NC(=O)[C@H](Cc2cccc(Cl)c2)N(C)C(=O)[C@H](C(C)C)NC(=O)[C@H](C)NC(=O)CSC[C@@H](C(=O)NCC(=O)NCCOCCOCCOCCOCCOCCOCCOCCOCCC(=O)N[C@@H](CCCCN=[N+]=[N-])C(N)=O)NC(=O)[C@H](Cc2ccc(O)cc2)N(C)C(=O)[C@H](Cc2ccccc2)NC(=O)[C@H](CCCNC(=N)N)NC(=O)[C@H](CCCNC(=N)N)NC(=O)[C@H]([C@@H](C)CC)NC1=O [compound 47]	1 to 100
CC[C@H](C)[C@@H]1NC(=O)[C@H](Cc2cccnc2)NC(=O)[C@H](Cc2ccc(O)cc2)NC(=O)[C@H](CC(N)=O)NC(=O)[C@H](Cc2cn(CC(=O)O)c3ccccc23)NC(=O)[C@H](C(C)C)NC(=O)[C@H](Cc2cccc(Cl)c2)N(C)C(=O)[C@H](C(C)C)NC(=O)[C@H](C)NC(=O)CSC[C@@H](C(=O)NCCOCCOCCOCCOCCC(N)=O)NC(=O)[C@H](Cc2ccc(O)cc2)N(C)C(=O)[C@H](Cc2ccncc2)NC(=O)[C@H](CCCNC(=N)N)NC(=O)[C@H](CCCNC(=N)N)NC(=O)[C@H]([C@@H](C)CC)NC1=O [compound 48] ({CH2CO}-AV[NMePhe(3-Cl)]V[Trp(1-CH2COOH)]NY[3Pal]IIRR[4Pal][NMeY]C[PEG4]-NH2; thioether N-15)	1 to 100

The next lines start with the values.

Kd [nM]	SMILES
1 to 100	CC[C@H](C)[C@@H]1NC(=O)[C@H](Cc2ccc(O)cc2)NC(=O)[C@H](Cc2ccc(O)cc2)NC(=O)[C@H](CC(N)=O)NC(=O)[C@H](Cc2c[nH]c3ccccc23)N(C)C(=O)[C@H](C(C)C)NC(=O)[C@H](Cc2ccc(F)cc2)N(C)C(=O)[C@H](C(C)C)NC(=O)[C@H](C)NC(=O)CSC[C@@H](C(=O)NCCOCCOCCOCCOCCC(N)=O)NC(=O)[C@H](Cc2ccc(O)cc2)N(C)C(=O)[C@H](Cc2ccccc2)NC(=O)[C@@H](CCCNC(=N)N)NC(=O)[C@H](CCCNC(=N)N)NC(=O)[C@H]([C@@H](C)CC)NC1=O [compound 28]
1 to 100	CC[C@H](C)[C@@H]1NC(=O)[C@H](Cc2ccc(OC)cc2)NC(=O)[C@H](Cc2ccc(O)cc2)NC(=O)[C@H](CC(N)=O)NC(=O)[C@H](Cc2c[nH]c3ccccc23)N(C)C(=O)[C@H](C(C)C)NC(=O)[C@H](Cc2ccc(F)cc2)N(C)C(=O)[C@H](C(C)C)NC(=O)[C@H](C)NC(=O)CSC[C@@H](C(=O)NCCOCCOCCOCCOCCC(N)=O)NC(=O)[C@H](Cc2ccc(O)cc2)N(C)C(=O)[C@H](Cc2ccccc2)NC(=O)[C@@H](CCCNC(=N)N)NC(=O)[C@H](CCCNC(=N)N)NC(=O)[C@H]([C@@H](C)CC)NC1=O [compound 29]
1 to 100	CC[C@H](C)[C@@H]1NC(=O)[C@H](Cc2ccc(OC)cc2)NC(=O)[C@H](Cc2ccc(O)cc2)NC(=O)[C@H](CC(N)=O)NC(=O)[C@H](Cc2c[nH]c3ccccc23)N(C)C(=O)[C@H](C(C)C)NC(=O)[C@H](Cc2ccc(F)cc2)N(C)C(=O)[C@H](C(C)C)NC(=O)[C@H](C)NC(=O)CSC[C@@H](C(=O)NCCOCCOCCOCCOCCC(N)=O)NC(=O)[C@H](Cc2ccc(O)cc2)N(C)C(=O)[C@H](Cc2ccccc2)NC(=O)[C@@H](CCCNC(=N)N)NC(=O)[C@H](CCCNC(=N)N)N(C)C(=O)[C@H]([C@@H](C)CC)NC1=O [compound 30]
< 1	CC[C@H](C)[C@@H]1NC(=O)[C@H](Cc2ccc(OC)cc2)NC(=O)[C@H](Cc2ccc(O)cc2)NC(=O)[C@H](CC(N)=O)NC(=O)[C@H](Cc2c[nH]c3ccc(Cl)cc23)NC(=O)[C@H](C(C)C)NC(=O)[C@H](Cc2ccccc2)N(C)C(=O)[C@H](C(C)C)NC(=O)[C@H](C)NC(=O)CSC[C@@H](C(=O)NCCOCCOCCOCCOCCC(N)=O)NC(=O)[C@H](Cc2ccc(O)cc2)N(C)C(=O)[C@H](Cc2ccc(O)cc2)NC(=O)[C@H](CCCNC(=N)N)NC(=O)[C@H](CCCNC(=N)N)NC(=O)[C@H]([C@@H](C)CC)NC1=O [compound 37]
< 1	CC[C@H](C)[C@@H]1NC(=O)[C@H](Cc2ccc(OC)cc2)NC(=O)[C@H](Cc2ccc(O)cc2)NC(=O)[C@H](CC(N)=O)NC(=O)[C@H](Cc2c[nH]c3ccccc23)NC(=O)[C@H](C(C)C)NC(=O)[C@H](Cc2cccc(Cl)c2)N(C)C(=O)[C@H](C(C)C)NC(=O)[C@H](C)NC(=O)CSC[C@@H](C(=O)NCCOCCOCCOCCOCCC(N)=O)NC(=O)[C@H](Cc2ccc(O)cc2)N(C)C(=O)[C@H](Cc2ccc(O)cc2)NC(=O)[C@H](CCCNC(=N)N)NC(=O)[C@H](CCCNC(=N)N)NC(=O)[C@H]([C@@H](C)CC)NC1=O [compound 38]
1 to 100	CC[C@H](C)[C@@H]1NC(=O)[C@H](Cc2ccc(OCC(=O)O)cc2)NC(=O)[C@H](Cc2ccc(O)cc2)NC(=O)[C@H](CC(N)=O)NC(=O)[C@H](Cc2c[nH]c3ccccc23)NC(=O)[C@H](C(C)C)NC(=O)[C@H](Cc2ccccc2)N(C)C(=O)[C@H](C(C)C)NC(=O)[C@H](C)NC(=O)CSC[C@@H](C(=O)NCCOCCOCCOCCOCCC(N)=O)NC(=O)[C@H](Cc2ccc(O)cc2)N(C)C(=O)[C@H](Cc2ccc(O)cc2)NC(=O)[C@H](CCCNC(=N)N)NC(=O)[C@H](CCCNC(=N)N)NC(=O)[C@H]([C@@H](C)CC)NC1=O [compound 45]
1 to 100	CC[C@H](C)[C@@H]1NC(=O)[C@H](Cc2ccc(OCC(=O)O)cc2)NC(=O)[C@H](Cc2ccc(O)cc2)NC(=O)[C@H](CC(N)=O)NC(=O)[C@H](Cc2cn(CC(=O)O)c3ccccc23)NC(=O)[C@H](C(C)C)NC(=O)[C@H](Cc2ccccc2)N(C)C(=O)[C@H](C(C)C)NC(=O)[C@H](C)NC(=O)CSC[C@@H](C(=O)NCCOCCOCCOCCOCCC(N)=O)NC(=O)[C@H](Cc2ccc(O)cc2)N(C)C(=O)[C@H](Cc2ccc(O)cc2)NC(=O)[C@H](CCCNC(=N)N)NC(=O)[C@H](CCCNC(=N)N)NC(=O)[C@H]([C@@H](C)CC)NC1=O [compound 46]
